From paper PMC5352051, “Identification of a novel Polo-like kinase 1 inhibitor that specifically blocks the functions of Polo-Box domain” (Oncotarget, 2016) come the findings set out here.

One assay concerns the target T1, Plk2 PBD (Homo sapiens, UniProt Q9NYY3).
T1 construct: (326-603 aa), Plk2 (355-685 aa), and Plk3 (335-646 aa); GST (N); made in house; host or cells: E. coli Rosetta BL21(DE3)
T1 sequence (Q9NYY3 355-685): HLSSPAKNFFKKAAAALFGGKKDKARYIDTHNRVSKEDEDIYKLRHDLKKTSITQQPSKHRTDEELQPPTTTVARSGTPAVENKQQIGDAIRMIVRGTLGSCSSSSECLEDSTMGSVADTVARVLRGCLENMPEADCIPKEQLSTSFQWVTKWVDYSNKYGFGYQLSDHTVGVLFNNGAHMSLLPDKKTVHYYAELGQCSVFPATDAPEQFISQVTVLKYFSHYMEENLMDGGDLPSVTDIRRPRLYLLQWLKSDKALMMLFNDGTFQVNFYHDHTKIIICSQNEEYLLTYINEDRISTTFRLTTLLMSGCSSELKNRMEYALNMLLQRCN
The assay can be described thus: Fluorescence polarization assay, Plk2 PBD / FITC-labeled phosphopeptide. The format is binding. Particulars: FP assay, 1 hr preincubation at RT, read-out: Apparent IC50. On the procedure:
FP assay was performed as follow. Briefly, 30 μL Plk1 PBD proteins (400 nM) were incubated with 0.3 μL tested compounds (1 mg/mL) with shaking for 1 hr at room temperature (RT) prior to addition of 30 μL FITC-Poloboxtide (FITC-GPMQSpTPLNG-OH; λex/λem: 485/535 nm; 60 nM) in FP buffer (50 mM Tris-HCl, 10 mM NaCl, 1 mM EDTA pH8.0). Three wells containing 30 μL FITC-Poloboxtide (60 nM) and 30 μL Plk1 PBD (400 nM) were used as negative control (0% inhibition); three wells containing 60 μL FITC-Poloboxtide (30 nM) only were used as positive control (100% inhibition). Fluorescence polarization was analyzed after incubation of FITC-Poloboxtide for 15 min in a 384-well black opaque microplate (Cat# 6007270, PerkinElmer) using Envision Multilabel Reader (PerkinElmer) at 25°C. We calculated the percentage of inhibition for each sample as follows: Inhibition(%)=Negative−Sample/Negative−Positive×100%
We plotted the inhibition values and determined IC50 using GraphPad Prism5.0. Together with the FITC-labeled peptides used for Plk1 PBD as mentioned above, the following peptides were used for specificity assays, FITC-GPMQTSpTPKNG-OH (Plk2 PBD), FITC-GPLATSpTPKNG-OH (Plk3 PBD). As described above for the FP assay, proteins were used at the following final concentrations: Plk1 PBD, 200 nM; Plk2 PBD, 450 nM; Plk3 PBD, 600 nM. All FITC-labeled peptides were chemically synthesized (China Peptides Co., Ltd., Shanghai) and further verified by mass spectrometry, and the purity is more than 95.0%.

The target in another assay is T2, Plk3 PBD (Homo sapiens, UniProt Q9H4B4).
T2 construct: (326-603 aa), Plk2 (355-685 aa), and Plk3 (335-646 aa); GST (N); made in house; host or cells: E. coli Rosetta BL21(DE3)
T2 sequence (Q9H4B4 335-646): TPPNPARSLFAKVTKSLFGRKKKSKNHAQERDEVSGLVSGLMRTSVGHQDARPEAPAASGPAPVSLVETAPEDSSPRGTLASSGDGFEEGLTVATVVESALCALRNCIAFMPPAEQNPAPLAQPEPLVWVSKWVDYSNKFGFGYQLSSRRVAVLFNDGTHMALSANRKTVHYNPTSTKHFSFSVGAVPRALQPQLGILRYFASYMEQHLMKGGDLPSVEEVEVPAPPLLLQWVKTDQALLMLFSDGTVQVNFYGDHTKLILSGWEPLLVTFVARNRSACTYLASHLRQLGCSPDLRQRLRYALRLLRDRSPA
The assay can be described thus: Fluorescence polarization assay, Plk3 PBD / FITC-labeled phosphopeptide. The format is binding. As to the method:
FP assay was performed as follow. […] We calculated the percentage of inhibition for each sample as follows: Inhibition(%)=Negative−Sample/Negative−Positive×100%
We plotted the inhibition values and determined IC50 using GraphPad Prism5.0. Together with the FITC-labeled peptides used for Plk1 PBD as mentioned above, the following peptides were used for specificity assays, FITC-GPMQTSpTPKNG-OH (Plk2 PBD), FITC-GPLATSpTPKNG-OH (Plk3 PBD).

Assay [1] relates to Plk1, Cyclin B1 and pHH-3 in HeLa cells. Put plainly: Western blot of mitotic markers. The format is cell-based, human. Particulars: synchronized HeLa, 50 ng/mL, 16 hrs, control for mitotic arrest. As to the method: HeLa cells were collected after trypsinization and lysed with RIPA buffer. Equal amount of proteins (30 μg/lane) were loaded, separated by 15% SDS-PAGE. After blocking with blocking buffer for 2 hrs at RT, the membrane was incubated with the following primary antibodies diluted in blocking buffer overnight at 4°C: anti-hPlk1 mouse monoclonal antibody (Cat# P5998; Sigma; 1:3000), anti-CyclinB1 rabbit polyclonal antibody (Cat# SAB4503501; Sigma; 1:2000), anti-pHH3 rabbit monoclonal antibody (Cat# 04-817; Millipore; 1:2000), anti-GAPDH rabbit polyclonal antibody (Cat# P30008; Abmart; 1:2000). The membrane was washed 3 times and then incubated with Horseradish Peroxidase-conjugated secondary antibodies for 1 hr at RT and visualized with ECL system (Millipore). The level of GAPDH was used as the loading control.

Consider `CC1=CC(=O)C(C(C)C)=CC1=O` [TQ, Thymoquinone, reference compound], for which the IC50 is 3.65 ± 0.96 µM at Plk2 PBD and 18.9 ± 1.32 µM against Plk3 PBD.

With `COC(=O)Nc1nc2ccc(C(=O)c3cccs3)cc2[nH]1` [Nocodazole, reference compound], the “mitotic markers (Plk1, Cyclin B1, pHH-3) protein levels” value in assay [1] is on record as “increase of protein levels”.

With `CC1=CC(=O)C(C(C)C)=C/C1=N/OC(=O)c1ccccc1C` [Poloxin, reference compound], the IC50 on Plk2 PBD was 15.6 ± 2.26 µM.
